pIC50, pKd, pKi: −log10 of the molar value. The source made the active and inactive calls. The rule behind the calls is not given here.
Experiments:
[1] = target: 3',5'-cyclic-AMP phosphodiesterase 4B (Homo sapiens, UniProt Q07343); assay: Inhibition of human PDE4B catalytic domain using cAMP as substrate incubated for 20 mins by PDELight HTS cAMP phosphodiesterase Kit based luminometry
[2] = Cytotoxicity against human MRC5 cells assessed as reduction in cell viability incubated for 72 hrs by resazurin dye-based fluorimetric analysis
Trypanosoma brucei [3] = assay: Antitrypanosomal activity against Trypanosoma brucei Squib 427 trypomastigotes assessed as reduction in parasite growth incubated for 72 hrs by resazurin dye-based fluorimetric analysis; format: functional, organism-based; conditions: Squib 427, 72 h
[4] = target: T1, Class 1 phosphodiesterase PDEB1 (Trypanosoma brucei, UniProt Q8WQX9); assay: Inhibition of Trypanosoma brucei PDEB1 catalytic domain using cAMP as substrate incubated for 20 mins by PDELight HTS cAMP phosphodiesterase Kit based luminometry
T1 sequence (Q8WQX9 whole entry): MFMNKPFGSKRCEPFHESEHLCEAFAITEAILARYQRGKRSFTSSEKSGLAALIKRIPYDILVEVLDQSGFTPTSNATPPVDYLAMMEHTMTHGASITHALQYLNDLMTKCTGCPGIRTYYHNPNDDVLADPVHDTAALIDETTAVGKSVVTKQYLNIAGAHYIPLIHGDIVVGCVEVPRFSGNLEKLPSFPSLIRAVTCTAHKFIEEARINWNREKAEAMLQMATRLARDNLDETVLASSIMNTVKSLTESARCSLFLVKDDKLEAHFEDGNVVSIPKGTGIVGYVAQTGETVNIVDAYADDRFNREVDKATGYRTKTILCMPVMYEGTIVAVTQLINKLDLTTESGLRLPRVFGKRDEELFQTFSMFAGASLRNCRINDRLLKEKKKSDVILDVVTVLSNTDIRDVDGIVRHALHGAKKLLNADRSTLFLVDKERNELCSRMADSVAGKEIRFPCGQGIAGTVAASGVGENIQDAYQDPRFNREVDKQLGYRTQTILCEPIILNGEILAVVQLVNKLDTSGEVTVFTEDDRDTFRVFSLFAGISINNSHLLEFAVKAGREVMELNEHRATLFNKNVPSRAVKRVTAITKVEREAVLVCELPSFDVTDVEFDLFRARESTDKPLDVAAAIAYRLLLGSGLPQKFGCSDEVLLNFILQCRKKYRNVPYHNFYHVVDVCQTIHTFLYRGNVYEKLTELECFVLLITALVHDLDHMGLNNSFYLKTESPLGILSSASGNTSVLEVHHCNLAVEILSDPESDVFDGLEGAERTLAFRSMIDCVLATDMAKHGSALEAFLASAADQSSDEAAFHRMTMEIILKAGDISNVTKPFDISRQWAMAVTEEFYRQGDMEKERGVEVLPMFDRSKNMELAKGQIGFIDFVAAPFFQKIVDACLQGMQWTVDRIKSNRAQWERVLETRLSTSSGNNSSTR

Trypanosoma brucei [5] = assay: Antitrypanosomal activity against procyclic form of Trypanosoma brucei 2913 assessed as increase in intracellular cAMP level at 1 to 10 uM by cAMP sensor based FRET assay; format: functional, organism-based
Trypanosoma brucei [6] = assay: Antitrypanosomal activity against bloodstream form of Trypanosoma brucei 221 cells assessed as blockade in cytokinesis with multiple flagella and nuclei formation at 1 uM incubated for 24 to 48 hrs by DAPI/PFR-staining based fluorescence microscopy; format: functional, organism-based
[7] = Selectivity index, ratio of pKi for Trypanosoma brucei PDEB1 to pKi for human PDE4B using cAMP as substrate incubated for 20 mins by PDELight HTS cAMP phosphodiesterase Kit based luminometry
[8] = target: T1, Class 1 phosphodiesterase PDEB1; assay: Binding affinity to Trypanosoma brucei PDEB1 assessed as dissociation constant treated for 320 secs measured for 900 secs by SPR assay
[9] = target: T2, 3',5'-cyclic-AMP phosphodiesterase 4D (Homo sapiens, UniProt Q08499); assay: Binding affinity to human PDE4D assessed as dissociation constant treated for 320 secs measured for 900 secs by SPR assay
T2 sequence (Q08499 whole entry): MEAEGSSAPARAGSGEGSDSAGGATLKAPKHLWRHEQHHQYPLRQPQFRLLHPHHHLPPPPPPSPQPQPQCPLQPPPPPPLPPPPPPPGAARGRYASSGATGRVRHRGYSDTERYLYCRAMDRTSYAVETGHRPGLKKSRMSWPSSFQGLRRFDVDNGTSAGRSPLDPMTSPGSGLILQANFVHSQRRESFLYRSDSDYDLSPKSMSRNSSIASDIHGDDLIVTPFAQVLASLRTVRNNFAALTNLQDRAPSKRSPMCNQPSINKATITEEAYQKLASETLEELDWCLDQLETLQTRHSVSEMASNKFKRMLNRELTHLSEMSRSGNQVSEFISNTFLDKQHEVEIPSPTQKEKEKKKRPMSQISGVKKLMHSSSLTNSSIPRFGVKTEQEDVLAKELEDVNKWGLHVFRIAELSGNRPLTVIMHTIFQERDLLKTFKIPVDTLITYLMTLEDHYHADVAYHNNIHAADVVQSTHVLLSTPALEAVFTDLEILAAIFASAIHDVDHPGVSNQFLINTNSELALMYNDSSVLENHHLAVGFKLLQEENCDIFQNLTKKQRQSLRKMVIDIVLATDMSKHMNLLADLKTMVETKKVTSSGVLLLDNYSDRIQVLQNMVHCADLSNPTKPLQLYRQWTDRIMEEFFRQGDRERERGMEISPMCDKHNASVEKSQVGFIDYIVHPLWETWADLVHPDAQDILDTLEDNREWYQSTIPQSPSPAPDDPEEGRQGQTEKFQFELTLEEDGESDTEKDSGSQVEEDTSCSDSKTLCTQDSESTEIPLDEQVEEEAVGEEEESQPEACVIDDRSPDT

[10] = target: T1, Class 1 phosphodiesterase PDEB1; assay: Binding affinity to Trypanosoma brucei PDEB1 assessed as dissociation constant treated for 60 secs measured for 300 secs by SPR assay
[11] = target: T2, 3',5'-cyclic-AMP phosphodiesterase 4D; assay: Binding affinity to human PDE4D assessed as dissociation constant treated for 60 secs measured for 300 secs by SPR assay

Sequence of 3',5'-cyclic-AMP phosphodiesterase 4B (Q07343 whole entry, the tested form may be a part): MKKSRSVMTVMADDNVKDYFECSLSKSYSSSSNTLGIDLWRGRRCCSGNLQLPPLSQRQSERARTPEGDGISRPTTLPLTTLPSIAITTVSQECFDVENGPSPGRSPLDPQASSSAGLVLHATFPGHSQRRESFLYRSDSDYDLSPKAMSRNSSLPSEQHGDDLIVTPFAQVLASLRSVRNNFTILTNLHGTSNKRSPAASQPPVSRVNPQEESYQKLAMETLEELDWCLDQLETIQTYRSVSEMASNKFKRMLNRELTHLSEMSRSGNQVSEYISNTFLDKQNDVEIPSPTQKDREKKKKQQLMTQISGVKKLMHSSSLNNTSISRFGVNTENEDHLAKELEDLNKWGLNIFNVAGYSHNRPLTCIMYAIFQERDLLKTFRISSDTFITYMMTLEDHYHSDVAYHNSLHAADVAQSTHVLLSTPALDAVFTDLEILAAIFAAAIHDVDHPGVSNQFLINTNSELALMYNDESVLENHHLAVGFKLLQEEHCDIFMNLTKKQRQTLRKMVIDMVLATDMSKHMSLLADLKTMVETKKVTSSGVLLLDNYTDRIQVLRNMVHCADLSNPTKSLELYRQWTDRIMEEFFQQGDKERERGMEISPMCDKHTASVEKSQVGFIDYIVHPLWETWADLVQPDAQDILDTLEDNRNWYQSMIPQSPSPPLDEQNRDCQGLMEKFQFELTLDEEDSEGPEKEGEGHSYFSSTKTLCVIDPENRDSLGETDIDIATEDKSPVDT

Row | SMILES | pKi [1] | CC50 at 72 h [2] | pIC50 (Trypanosoma brucei [3]) | pKi [4] | Activity (Trypanosoma brucei [5]) | Activity (Trypanosoma brucei [6]) | Ratio pKi [7] | pKd [8] | pKd [9] | pKd [10] | pKd [11]
1 | COc1cccc(NC(=O)C#Cc2cc(C3=NN(C(C)C)C(=O)[C@@H]4CC=CC[C@H]34)ccc2OC)c1 (relative stereo) | 6.00 | > 63100 nM | 5.80 | 6.70 |  |  |  |  |  |  | 
2 | COc1ccc(C2=NN(C(C)C)C(=O)[C@@H]3CC=CC[C@H]23)cc1C#CC(=O)N1CC(C#N)C1 (relative stereo) | 6.40 | 7940 nM | 5.10 | 6.20 |  |  |  |  |  |  | 
3 | COc1ccc(C2=NN(C(C)C)C(=O)[C@@H]3CC=CC[C@H]23)cc1C#CC(=O)NCC1CCC1 (relative stereo) | 6.10 | > 63100 nM | 5.20 | 6.50 |  |  |  |  |  |  | 
4 | COc1ccc(C2=NN(C(C)C)C(=O)[C@@H]3CC=CC[C@H]23)cc1C#CC(=O)NCc1ccncc1 (relative stereo) | 6.20 | 31600 nM | 6.00 | 7.00 | Active | Active |  |  |  |  | 
5 | COc1ccc(C2=NN(C(C)C)C(=O)[C@@H]3CC=CC[C@H]23)cc1C#CC(=O)NCc1cccnc1 (relative stereo) | 6.30 | 3980 nM | 5.90 | 7.00 |  |  |  |  |  |  | 
6 | COc1ccc(C2=NN(C(C)C)C(=O)[C@@H]3CC=CC[C@H]23)cc1C#CC(=O)NCc1cnn(C)c1 | 6.20 | 20000 nM | 5.80 | 6.90 |  |  |  |  |  |  | 
7 | COc1ccc(C2=NN(C3CCCCCC3)C(=O)[C@@H]3CC=CC[C@H]23)cc1C#CC(N)=O | 6.50 |  |  | 6.20 |  |  |  |  |  |  | 
8 | COc1ccc(C2=NN(C(C)C)C(=O)[C@@H]3CC=CC[C@H]23)cc1C#CC(=O)NCc1csc(C)n1 (relative stereo) | 6.00 | 12600 nM | 5.70 | 6.50 |  |  |  |  |  |  | 
9 | COc1ccc(C2=NN(C(C)C)C(=O)[C@@H]3CC=CC[C@H]23)cc1C#CC(=O)N1CCOCC1 (relative stereo) | 6.10 | 31600 nM | 5.00 | 6.00 |  |  |  |  |  |  | 
10 | COc1ccc(C2=NN(C3CCCCCC3)C(=O)[C@@H]3CC=CC[C@H]23)cc1-c1ccc(C(=O)NCC(N)=O)cc1 |  |  |  |  |  |  | 1 |  |  |  | 
11 | COc1ccc(C2=NN(C(C)C)C(=O)[C@@H]3CC=CC[C@H]23)cc1C#CC(=O)NCc1ccccc1 (relative stereo) | 6.10 | > 63100 nM | 6.20 | 6.80 | Active | Active |  | 7.10 | 7.10 |  | 
12 | COc1ccc(C2=NN(C(C)C)C(=O)[C@@H]3CC=CC[C@H]23)cc1C#CC(=O)NCCC#N (relative stereo) | 6.10 | 31600 nM | 4.60 | 6.00 |  |  |  |  |  |  | 
13 | COc1ccc(C2=NN(C(C)C)C(=O)[C@@H]3CC=CC[C@H]23)cc1C#CC(=O)NCCc1cccs1 (relative stereo) | 6.10 | > 63100 nM | 5.60 | 6.40 |  |  |  |  |  |  | 
14 | COc1ccc(C2=NN(C(C)C)C(=O)[C@@H]3CC=CC[C@H]23)cc1C#CC(N)=O (relative stereo) | 6.50 | 31600 nM | 5.20 | 6.30 |  |  |  |  |  | 6.10 | 6.60
15 | COc1ccc(C2=NN(C(C)C)C(=O)[C@@H]3CC=CC[C@H]23)cc1C#CC(=O)NCCc1nccs1 (relative stereo) | 6.40 | 10000 nM | 5.30 | 6.60 |  |  |  |  |  |  | 
16 | CCCCNC(=O)C#Cc1cc(C2=NN(C(C)C)C(=O)[C@@H]3CC=CC[C@H]23)ccc1OC (relative stereo) | 6.30 | > 63100 nM | 5.10 | 6.50 |  |  |  |  |  |  | 
17 | COc1ccc(C2=NN(C(C)C)C(=O)[C@@H]3CC=CC[C@H]23)cc1C#CC(=O)Nc1cnn(C)n1 (relative stereo) | 6.30 | 10000 nM | < 4.20 | 5.60 |  |  |  |  |  |  | 
18 | COc1ccc(C2=NN(C(C)C)C(=O)[C@@H]3CC=CC[C@H]23)cc1C#CC(=O)NCc1ccco1 (relative stereo) | 6.40 | > 63100 nM | 5.60 | 6.90 |  |  |  |  |  |  | 
19 | COc1ccc(C2=NN(C(C)C)C(=O)[C@@H]3CC=CC[C@H]23)cc1C#CC(=O)NCC1CCCO1 (relative stereo) | 5.90 | 31600 nM | 5.10 | 6.40 |  |  |  |  |  |  | 
20 | COc1ccc(C2=NN(C(C)C)C(=O)[C@@H]3CC=CC[C@H]23)cc1C#CC(=O)NCc1sc(C)nc1C (relative stereo) | 6.60 | 7940 nM | 5.70 | 6.70 |  |  |  |  |  |  | 
21 | COc1ccc(C2=NN(C(C)C)C(=O)[C@@H]3CC=CC[C@H]23)cc1C#CC(=O)NCc1cccs1 (relative stereo) | 6.30 | 63100 nM | 6.00 | 6.90 |  |  |  |  |  |  | 
22 | COc1ccc(C2=NN(C(C)C)C(=O)[C@@H]3CC=CC[C@H]23)cc1C#CC(=O)NCC1CC1 (relative stereo) | 6.50 | > 63100 nM | 5.10 | 6.40 |  |  |  |  |  |  | 
23 | COc1ccc(C2=NN(C(C)C)C(=O)[C@@H]3CC=CC[C@H]23)cc1C#CC(=O)NCc1ccc(C)o1 (relative stereo) | 6.70 | > 63100 nM | 5.50 | 6.70 |  |  |  |  |  |  | 
24 | COc1ccc(C2=NN(C(C)C)C(=O)[C@@H]3CC=CC[C@H]23)cc1C#CC(=O)NCCc1ccccc1F (relative stereo) | 6.10 | > 63100 nM | 5.70 | 6.50 |  |  |  |  |  |  | 
25 | COc1ccc(C2=NN(C(C)C)C(=O)[C@@H]3CC=CC[C@H]23)cc1C#CC(=O)NCCCn1ccnc1 (relative stereo) | 6.20 | 251 nM | 5.10 | 6.40 |  |  |  |  |  |  | 
26 | COc1ccc(C2=NN(C(C)C)C(=O)[C@@H]3CC=CC[C@H]23)cc1C#CC(=O)Nc1ccn(CCCC#N)n1 (relative stereo) | 5.90 | 7940 nM | 5.70 | 6.10 |  |  |  |  |  |  | 

Source: ChEMBL document CHEMBL4346760, “Alkynamide phthalazinones as a new class of TbrPDEB1 inhibitors (Part 2)” (Bioorg Med Chem, 2019)
